Results as given in US20080188481A1 (priority 2002, published 2008).

tested on: HIV-1 single-round infectious reporter virus; assay: Single-round infectious HIV-1 luciferase reporter virus infection of HeLa CD4 cells (antiviral EC50); assay type: cell-based; details: Human immunodeficiency virus 1, HeLa, 72 h, read-out: EC50 Group from Table 1
Method: • Virus production—Human embryonic Kidney cell line, 293T, was propagated in Dulbecco's Modified Eagle Medium (Invitrogen, Carlsbad, Calif.) containing 10% fetal Bovine serum (FBS, Sigma, St. Louis, Mo.). • Virus infection—Human epithelial cell line, HeLa, expressing the HIV-1 receptor CD4 was propagated in Dulbecco's Modified Eagle Medium (Invitrogen, Carlsbad, Calif.) containing 10% fetal Bovine serum (FBS, Sigma, St. Louis, Mo.) and supplemented with 0.2 mg/mL Geneticin (Invitrogen, Carlsbad, Calif.). Virus-Single-round infectious reporter virus was produced by co-transfecting human embryonic Kidney 293 cells with an HIV-1 envelope DNA expression vector and a proviral cDNA containing an envelope deletion mutation and the luciferase reporter gene inserted in place of HIV-1 nef sequences (Chen et al, Ref. 41). Transfections were performed using lipofectAMINE PLUS reagent as described by the manufacturer (Invitrogen, Carlsbad, Calif.).
• 1. HeLa CD4 cells were plated in 96 well plates at a cell density of 1×10^4 cells per well in 100 μl Dulbecco's Modified Eagle Medium containing 10% fetal Bovine serum and incubated overnight. • 2. Compound was added in a 2 μl dimethylsulfoxide solution, so that the final assay concentration would be ≦10 μM. • 3. 100 μl of single-round infectious reporter virus in Dulbecco's Modified Eagle Medium was then added to the plated cells and compound at an approximate multiplicity of infection (MOI) of 0.01, resulting in a final volume of 200 μl per well. • 4. Virally-infected cells were incubated at 37 degrees Celsius, in a CO2 incubator, and harvested 72 h after infection. • 5. Viral infection was monitored by measuring luciferase expression from viral DNA in the infected cells using a luciferase reporter gene assay kit, as described by the manufacturer (Roche Molecular Biochemicals, Indianapolis, Ind.). Infected cell supernatants were removed and 50 μl of lysis buffer was added per well. After 15 minutes, 50 μl of freshly-reconstituted luciferase assay reagent was added per well. Luciferase activity was then quantified by measuring luminescence using a Wallac microbeta scintillation counter. • 6. The percent inhibition for each compound was calculated by quantifying the level of luciferase expression in cells infected in the presence of each compound as a percentage of that observed for cells infected in the absence of compound and subtracting such a determined value from 100. • 7. An EC50 provides a method for comparing the antiviral potency of the compounds of this invention. The effective concentration for fifty percent inhibition (EC50) was calculated with the Microsoft Excel Xlfit curve fitting software. For each compound, curves were generated from percent inhibition calculated at 10 different concentrations by using a four paramenter logistic model (model 205). Table 1 is the key for the data in Table 2.

Row | SMILES | EC50 [nM]
1 | CC1CN(C(=O)C(=O)c2c[nH]c3ccccc23)CC/C1=C\c1ccccc1 (centres unmarked) [Example 14] | 1000 to 5000
2 | COc1cnc(-n2cnc(C)n2)c2[nH]cc(C(=O)C(=O)N3CCC(=C(c4ccccc4)c4nnc(O)o4)CC3)c12 [Example 83, 1-[4-(1-Phenyl-1-(5-hydroxy-1,3,4-oxadiazol-2-yl)-methylene)-piperidin-1-yl]-2-[4-methoxy-7-(3-methyl-1,2,4-triazol-1-yl)-6-azaindol-3-yl]-ethane-1,2-dione] | < 1000
3 | COc1cnc(-n2ccc(C)n2)c2[nH]cc(C(=O)C(=O)N3CCC(=C(c4ccccc4)c4nccs4)CC3)c12 [Example 95] | < 1000
4 | COc1ncc(OC)c2c(C(=O)C(=O)N3CCC(=C(C#CC(C)C)c4ccccc4)CC3)c[nH]c12 [Example 114, 1-[4-(1-Phenyl-1-(2-isopropylethyn-1-yl)-methylene)-piperidin-1-yl]-2-(4,7-dimethoxy-6-azaindol-3-yl)-ethane-1,2-dione] | < 1000
5 | COc1cnc(-c2nnc(C)[nH]2)c2[nH]cc(C(=O)C(=O)N3CCC(=C(c4ccccc4)c4nnc(C)o4)CC3)c12 [Example 139, 1-[4-(1-Phenyl-1-(5-methyl-1,3,4-oxadiazol-2-yl)-methylene)-piperidin-1-yl]-2-(4-methoxy-7-(5-methyl-1,3,4-triazol-2-yl)-6-azaindol-3-yl)-ethane-1,2-dione] | < 1000
6 | N#CC(=C1CCN(C(=O)C(=O)c2c[nH]c3c(-c4cncc(N)n4)ccnc23)CC1)c1ccccc1 [Example 106, (1-{2-[7-(6-Amino-pyrazin-2-yl)-1H-pyrrolo[3,2-b]pyridin-3-yl]-2-oxo-acetyl}-piperidin-4-ylidene)-phenyl-acetonitrile] | < 1000
7 | COc1cnc(-n2ccc(C)n2)c2[nH]cc(C(=O)C(=O)N3CCC(=C(c4ccccc4)c4cccc(F)c4)CC3)c12 [Example 98] | < 1000
8 | COc1cnc(-c2cnccn2)c2[nH]cc(C(=O)C(=O)N3CCC(=C(c4ccccc4)c4nccs4)CC3)c12 [Example 90] | < 1000
9 | COc1ncc(OC)c2c(C(=O)C(=O)N3CCC(=C(C#N)c4nnc(-c5ccccc5)o4)CC3)c[nH]c12 [Example 122, 1-[4-(1-Cyano-1-(5-phenyl-1,3,4-oxadiazol-2-yl)-methylene)-piperidin-1-yl]-2-(4,7-dimethoxy-6-azaindol-3-yl)-ethane-1,2-dione] | > 5000
10 | COc1ncc(OC)c2c(C(=O)C(=O)N3CCC(=C(C#N)c4nc5ccccc5s4)CC3)c[nH]c12 [Example 123, 1-[4-(1-Cyano-1-benzothiazol-2-yl-methylene)-piperidin-1-yl]-2-(4,7-dimethoxy-6-azaindol-3-yl)-ethane-1,2-dione] | > 5000
11 | COc1cnc(-c2cnccn2)c2[nH]cc(C(=O)C(=O)N3CCC(=C(c4ccccc4)c4cccc(F)c4)CC3)c12 [Example 94] | < 1000
12 | COc1ncc(OC)c2c(C(=O)C(=O)N3CCC(=C(c4ccccc4)c4ncco4)CC3)c[nH]c12 [Example 61] | < 1000
13 | COc1cnc(-c2cnccn2)c2[nH]cc(C(=O)C(=O)N3CCC(=C(c4ccccc4)c4csc(C)n4)CC3)c12 [Example 91] | < 1000
14 | COc1cnc(-n2cnc(C)n2)c2[nH]cc(C(=O)C(=O)N3CCC(=C(c4ccccc4)c4nnc(-c5ccccc5)o4)CC3)c12 [Example 135, 1-[4-(1-Phenyl-1-(5-phenyl-1,3,4-oxadiazol-2-yl)-methylene)-piperidin-1-yl]-2-[4-methoxy-7-(3-methyl-1,2,4-triazol-1-yl)-6-azaindol-3-yl]-ethane-1,2-dione] | > 500
15 | COc1ncc(OC)c2c(C(=O)C(=O)N3CCC(=C(Br)c4ccccc4)CC3)c[nH]c12 [Example 48a, 1-[4-(1-Bromo-1-phenyl-methylene)-piperidin-1-yl]-2-(4,7-dimethoxy-6-azaindol-3-yl)-ethane-1,2-dione] | < 1000
16 | COc1ncc(OC)c2c(C(=O)C(=O)N3CCC(=C(C(N)=O)c4ccccc4)CC3)c[nH]c12 [Example 47] | < 1000

Row | SMILES | EC50 [nM]
17 | N#CC(=C1CCN(C(=O)C(=O)c2c[nH]c3c(-n4nccn4)ccnc23)CC1)c1ccccc1 [Example 105, {1-[2-Oxo-2-(7-[1,2,3]triazol-2-yl-1H-pyrrolo[3,2-b]pyridin-3-yl)-acetyl]-piperidin-4-ylidene}-phenyl-acetonitrile] | < 1000
18 | N#CC(=C1CCN(C(=O)C(=O)c2c[nH]c3c(-n4cncn4)ncc(F)c23)CC1)c1ccccc1 [Example 110, {1-[2-(4-Fluoro-7-[1,2,4]triazol-1-yl-1H-pyrrolo[2,3-c]pyridin-3-yl)-2-oxo-acetyl]-piperidin-4-ylidene}-phenyl-acetonitrile] | < 1000
19 | CCOC(=O)c1cc(C(=C2CCN(C(=O)C(=O)c3c[nH]c4c(-n5cnc(C)n5)ncc(OC)c34)CC2)c2ccccc2)n[nH]1 [Example 87] | < 1000
20 | COc1cnc(-n2ccnn2)c2[nH]cc(C(=O)C(=O)N3CCC(=C(c4ccccc4)c4nnc(C5CC5)o4)CC3)c12 [Example 76, 1-[4-(1-Phenyl-1-(5-cyclopropyl-1,3,4-oxadiazol-2-yl)-methylene)-piperidin-1-yl]-2-[4-methoxy-7-(1,2,3-triazol-1-yl)-6-azaindol-3-yl]-ethane-1,2-dione] | < 1000
21 | N#CC(=C1CCN(C(=O)C(=O)c2c[nH]c3c(-c4ncco4)ccnc23)CC1)c1ccccc1 [Example 103, {1-[2-(7-Oxazol-2-yl-1H-pyrrolo[3,2-b]pyridin-3-yl)-2-oxo-acetyl]-piperidin-4-ylidene}-phenyl-acetonitrile] | < 1000
22 | COc1cnc(-n2cnc(C)n2)c2[nH]cc(C(=O)C(=O)N3CCC(=C(c4ccccc4)c4nnc(C(C)(C)C)o4)CC3)c12 [Example 134, 1-[4-(1-Phenyl-1-(5-tert-butyl-1,3,4-oxadiazol-2-yl)-methylene)-piperidin-1-yl]-2-[4-methoxy-7-(3-methyl-1,2,4-triazol-1-yl)-6-azaindol-3-yl]-ethane-1,2-dione] | < 1000
23 | COc1cnc(-n2cnc(C)n2)c2[nH]cc(C(=O)C(=O)N3CCC(=C(c4ccccc4)c4cc(F)cc(F)c4)CC3)c12 [Example 85, 1-[4-(1-Phenyl-1-(3,5-difluorophenyl)-methylene)-piperidin-1-yl]-2-[4-methoxy-7-(3-methyl-1,2,4-triazol-1-yl)-6-azaindol-3-yl]-ethane-1,2-dione] | < 1000
24 | COc1ncc(OC)c2c(C(=O)C(=O)N3CCC(=C(C)c4ccccc4)CC3)c[nH]c12 [Example 8] | < 1000
25 | COc1ncc(OC)c2c(C(=O)C(=O)N3CCC(=C(C#CCO)c4ccccc4)CC3)c[nH]c12 [Example 116, 1-[4-(1-Phenyl-1-(2-hydroxymethylethyn-1-yl)-methylene)-piperidin-1-yl]-2-(4,7-dimethoxy-6-azaindol-3-yl)-ethane-1,2-dione] | < 1000
26 | N#CC(=C1CCN(C(=O)C(=O)c2c[nH]c3c(Cl)ccnc23)CC1)c1ccccc1 [Example 101, {1-[2-(7-Chloro-1H-pyrrolo[3,2-b]pyridin-3-yl)-2-oxo-acetyl]-piperidin-4-ylidene}-phenyl-acetonitrile] | < 1000
27 | COc1ncc(OC)c2c(C(=O)C(=O)N3CCC(=C(F)c4ccccc4)CC3)c[nH]c12 [Example 9] | < 1000
28 | COc1cnc(-n2ccnn2)c2[nH]cc(C(=O)C(=O)N3CCC(=C(c4ccccc4)c4cnn(Cc5ccccc5)c4)CC3)c12 [Example 144, 1-[4-(1-Phenyl-1-(1-benzylpyrazol-4-yl)-methylene)-piperidin-1-yl]-2-(4-methoxy-7-(1,2,3-triazol-1-yl)-6-azaindol-3-yl)-ethane-1,2-dione] | < 1000
29 | Cc1nnc(C(=C2CCN(C(=O)C(=O)c3c[nH]c4c(Cl)ccnc34)CC2)c2ccccc2)o1 [Example 108, 1-(7-Chloro-1H-pyrrolo[3,2-b]pyridin-3-yl)-2-{4-[(5-methyl-[1,3,4]oxadiazol-2-yl)-phenyl-methylene]-piperidin-1-yl}-ethane-1,2-dione] | < 1000
30 | COc1cnc(-n2cnc(C)n2)c2[nH]cc(C(=O)C(=O)N3CCC(=C(c4ccccc4)c4cn(C)cn4)CC3)c12 [Example 136, 1-[4-(1-Phenyl-1-(1-methylimidazol-4-yl)-methylene)-piperidin-1-yl]-2-(4-methoxy-7-(3-methyl-1,2,4-triazol-1-yl)-6-azaindol-3-yl)-ethane-1,2-dione] | < 1000
31 | COc1ccc(C(=C2CCN(C(=O)C(=O)c3c[nH]c4c(OC)ncc(OC)c34)CC2)c2ccccc2)cc1 [Example 62] | < 1000
32 | COc1ncc(OC)c2c(C(=O)C(=O)N3CCC(=C(c4ccccc4)c4ccc(F)cc4)CC3)c[nH]c12 [Example 64] | < 1000
